# Results as given in ChEMBL document CHEMBL4229491, “Design, synthesis and evaluation of novel N-phenylbutanamide derivatives as KCNQ openers for the treatment of epilepsy” (Bioorg Med Chem Lett, 2018).
# Legend:
# [1] = molecular target: T1, Potassium voltage-gated channel subfamily KQT member 2 (Homo sapiens, UniProt O43526); assay: Channel opening activity at KCNQ2 (unknown origin) expressed in CHO cells after 10 mins by atomic absorption spectrophotometry-based Rb+ flow assay; format: cell-based
# [2] = molecular target: T1, Potassium voltage-gated channel subfamily KQT member 2; assay: Channel opening activity at KCNQ2 (unknown origin) expressed in CHO cells assessed as change in half activation potential at 10 uM by electrophysiological patch-clamp test; format: cell-based
# [3] = molecular target: T1, Potassium voltage-gated channel subfamily KQT member 2; assay: Channel opening activity at KCNQ2 (unknown origin) expressed in CHO cells assessed as conductivity (I/I0 ratio) at 10 uM by electrophysiological patch-clamp test; format: cell-based
# [4] = molecular target: T1, Potassium voltage-gated channel subfamily KQT member 2; assay: Channel opening activity at KCNQ2 (unknown origin) expressed in CHO cells at 10 uM incubated for 20 mins in dark measured every 2 secs for 10 secs by fluorescence-based thallium influx assay relative to control; format: cell-based
# Mus musculus [5] = assay: Anticonvulsant activity in maximal electroshock induced Kunming mouse assessed as epilepsy incidence at 25 mg/kg, ip measured after 30 mins; format: functional
# Rattus norvegicus [6] = assay: Neurotoxicity in Sprague-Dawley rat at 25 mg/kg, ip measured after 30 mins by rotating-rod test; format: toxicity, organism-based; conditions: in vivo, 0.5 h
# Mus musculus [7] = assay: Anticonvulsant activity in maximal electroshock induced Kunming mouse assessed as epilepsy incidence at 1 mg/kg, ip measured after 30 mins; format: functional
# Rattus norvegicus [8] = assay: Neurotoxicity in Sprague-Dawley rat at 5 mg/kg, ip measured after 30 mins by rotating-rod test; format: toxicity, organism-based; conditions: in vivo, 0.5 h
# [9] = Ratio of drug uptake in Kunming mouse brain to plasma at 15 mg/kg, ig measured after 2 hrs by LC/MS/MS analysis; format: ADME, organism-based; conditions: po, read-out: BPR
# [10] = Apparent volume of distribution in Sprague-Dawley rat at 1 mg/kg, iv by LC/MS/MS analysis; format: ADME, organism-based; conditions: in vivo, read-out: Vz
# [11] = AUClast in Sprague-Dawley rat at 1 mg/kg, iv by LC/MS/MS analysis; format: ADME, organism-based; design: dose 1 mg/kg, route intravenous, time 0 - last; conditions: in vivo
# [12] = Cmax in Sprague-Dawley rat at 1 mg/kg, iv by LC/MS/MS analysis; format: ADME, organism-based; design: dose 1 mg/kg, route intravenous; conditions: in vivo
# [13] = Ratio of drug uptake in Kunming mouse brain to plasma at 1.5 mg/kg, iv measured after 5 mins by LC/MS/MS analysis; format: ADME, organism-based; conditions: read-out: BPR
# [14] = Tmax in Sprague-Dawley rat at 1 mg/kg, iv by LC/MS/MS analysis; format: ADME, organism-based; conditions: in vivo
# [15] = Drug uptake in Kunming mouse brain at 1.5 mg/kg, iv measured after 5 mins by LC/MS/MS analysis; format: ADME, organism-based; conditions: read-out: Drug uptake
# Rattus norvegicus [16] = assay: Neurotoxicity in Sprague-Dawley rat at 1 mg/kg, ip measured after 30 mins by rotating-rod test; format: toxicity, organism-based; conditions: in vivo, 0.5 h
# [17] = Ratio of drug uptake in Kunming mouse brain to plasma at 15 mg/kg, ig measured after 30 mins by LC/MS/MS analysis; format: ADME, organism-based; conditions: po, read-out: BPR
# [18] = Half life in Sprague-Dawley rat at 1 mg/kg, iv by LC/MS/MS analysis; format: ADME, organism-based; conditions: in vivo
# [19] = Drug uptake in Kunming mouse plasma at 1.5 mg/kg, iv measured after 2 hrs by LC/MS/MS analysis; format: ADME, organism-based
# Mus musculus [20] = assay: Anticonvulsant activity in maximal electroshock induced Kunming mouse assessed as epilepsy incidence at 5 mg/kg, ip measured after 30 mins; format: functional
# [21] = Clearance in Sprague-Dawley rat at 1 mg/kg, iv by LC/MS/MS analysis; format: ADME, organism-based; conditions: in vivo
# [22] = Drug uptake in Kunming mouse brain at 15 mg/kg, ig measured after 5 mins by LC/MS/MS analysis; format: ADME, organism-based; conditions: po, read-out: Drug uptake
# [23] = molecular target: T1, Potassium voltage-gated channel subfamily KQT member 2; assay: Potency index, ratio of retigabine EC50 to compound EC50 for channel opening activity at KCNQ2 (unknown origin) expressed in CHO cells by atomic absorption spectrophotometry-based Rb+ flow assay; format: cell-based
# Rattus norvegicus [24] = assay: Neurotoxicity in Sprague-Dawley rat at 3 mg/kg, ip measured after 30 mins by rotating-rod test; format: toxicity, organism-based; conditions: in vivo, 0.5 h
# [25] = Drug uptake in Kunming mouse plasma at 15 mg/kg, ig measured after 30 mins by LC/MS/MS analysis; format: ADME, organism-based; conditions: po
# Rattus norvegicus [26] = assay: Neurotoxicity in Sprague-Dawley rat at 0.3 mg/kg, ip measured after 30 mins by rotating-rod test; format: toxicity, organism-based; conditions: in vivo, 0.5 h
# Mus musculus [27] = assay: Anticonvulsant activity in ip dosed maximal electroshock induced Kunming mouse assessed as suppression of hind legs rigidity measured after 30 mins; format: functional, organism-based
# [28] = Drug uptake in Kunming mouse plasma at 15 mg/kg, ig measured after 5 mins by LC/MS/MS analysis; format: ADME, organism-based; conditions: po
# [29] = Drug uptake in Kunming mouse brain at 15 mg/kg, ig measured after 2 hrs by LC/MS/MS analysis; format: ADME, organism-based; conditions: po, read-out: Drug uptake
# [30] = Drug uptake in Kunming mouse plasma at 15 mg/kg, ig measured after 2 hrs by LC/MS/MS analysis; format: ADME, organism-based; conditions: po
# [31] = Ratio of drug uptake in Kunming mouse brain to plasma at 15 mg/kg, ig measured after 5 mins by LC/MS/MS analysis; format: ADME, organism-based; conditions: po, read-out: BPR
# [32] = MRTlast in Sprague-Dawley rat at 1 mg/kg, iv by LC/MS/MS analysis; format: ADME, organism-based; conditions: in vivo
# Mus musculus [33] = assay: Anticonvulsant activity in maximal electroshock induced Kunming mouse assessed as epilepsy incidence at 3 mg/kg, ip measured after 30 mins; format: functional
# [34] = Drug uptake in Kunming mouse brain at 1.5 mg/kg, iv measured after 30 mins by LC/MS/MS analysis; format: ADME, organism-based; conditions: read-out: Drug uptake
# [35] = Drug uptake in Kunming mouse brain at 15 mg/kg, ig measured after 30 mins by LC/MS/MS analysis; format: ADME, organism-based; conditions: po, read-out: Drug uptake
# [36] = Drug uptake in Kunming mouse plasma at 1.5 mg/kg, iv measured after 30 mins by LC/MS/MS analysis; format: ADME, organism-based
# [37] = Ratio of drug uptake in Kunming mouse brain to plasma at 1.5 mg/kg, iv measured after 30 mins by LC/MS/MS analysis; format: ADME, organism-based; conditions: read-out: BPR
# [38] = Ratio of drug uptake in Kunming mouse brain to plasma at 1.5 mg/kg, iv measured after 2 hrs by LC/MS/MS analysis; format: ADME, organism-based; conditions: read-out: BPR
# [39] = Drug uptake in Kunming mouse brain at 1.5 mg/kg, iv measured after 2 hrs by LC/MS/MS analysis; format: ADME, organism-based; conditions: read-out: Drug uptake
# [40] = Drug uptake in Kunming mouse plasma at 1.5 mg/kg, iv measured after 5 mins by LC/MS/MS analysis; format: ADME, organism-based
# Mus musculus [41] = assay: Anticonvulsant activity in maximal electroshock induced Kunming mouse assessed as epilepsy incidence at 0.3 mg/kg, ip measured after 30 mins; format: functional
# T1 sequence (O43526 whole entry): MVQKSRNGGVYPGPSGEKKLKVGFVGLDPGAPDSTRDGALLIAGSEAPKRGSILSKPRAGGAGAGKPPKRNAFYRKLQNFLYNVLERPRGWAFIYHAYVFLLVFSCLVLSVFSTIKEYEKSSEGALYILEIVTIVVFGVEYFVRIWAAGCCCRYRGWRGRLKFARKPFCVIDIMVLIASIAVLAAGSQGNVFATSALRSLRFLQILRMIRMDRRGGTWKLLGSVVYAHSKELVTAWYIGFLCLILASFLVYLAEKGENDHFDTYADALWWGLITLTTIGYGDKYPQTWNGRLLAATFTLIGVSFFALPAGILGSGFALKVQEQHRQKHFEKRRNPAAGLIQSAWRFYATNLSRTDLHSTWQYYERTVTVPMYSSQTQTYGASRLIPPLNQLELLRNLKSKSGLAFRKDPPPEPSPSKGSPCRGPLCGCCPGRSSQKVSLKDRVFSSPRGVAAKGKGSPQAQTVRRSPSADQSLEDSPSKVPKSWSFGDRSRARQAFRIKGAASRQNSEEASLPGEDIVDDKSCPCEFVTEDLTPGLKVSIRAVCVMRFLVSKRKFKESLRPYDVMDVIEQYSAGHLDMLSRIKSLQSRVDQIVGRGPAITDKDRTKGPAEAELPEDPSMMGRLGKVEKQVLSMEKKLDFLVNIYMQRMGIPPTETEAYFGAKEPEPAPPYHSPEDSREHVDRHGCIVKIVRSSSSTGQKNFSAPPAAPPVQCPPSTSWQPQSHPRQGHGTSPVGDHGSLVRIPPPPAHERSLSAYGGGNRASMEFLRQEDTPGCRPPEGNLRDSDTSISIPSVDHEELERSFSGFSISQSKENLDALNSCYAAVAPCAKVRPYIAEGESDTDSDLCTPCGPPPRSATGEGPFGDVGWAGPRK
structure (smiles),measurement,setting,value
Cc1csc2c1CN(c1cc(C)c(NC(=O)CC(C)(C)C)c(C)c1)CC2,EC50,[1],300 nM
Cc1cc2c(s1)CN(c1cc(C)c(NC(=O)CC(C)(C)C)c(C)c1)CC2,EC50,[1],30 nM
Cc1cc(N2CCc3sc(C(F)(F)F)cc3C2)cc(C)c1NC(=O)CC(C)(C)C,EC50,[1],120 nM
Cc1cc(N2CCc3ccsc3C2)cc(C)c1NC(=O)CC(C)(C)C,V1/2,[2],53.3 mV
same,EC50,[1],20 nM
same,Ratio,[3],0.67
same,Activity,[4],64.8%
Cc1cc(N2CCCCc3cc(Br)ccc32)cc(C)c1NC(=O)CC(C)(C)C,EC50,[1],1080 nM
CCOC(=O)Nc1ccc(NCc2ccc(F)cc2)cc1N [EZOGABINE],V1/2,[2],40 mV
same,Ratio,[3],2.12
same,Activity,Mus musculus [5],15%
same,Activity,Rattus norvegicus [6],0%
Cc1cc(N2CCn3cccc3C2)cc(C)c1NC(=O)CC(C)(C)C,V1/2,[2],46.1 mV
same,EC50,[1],34 nM
same,Ratio,[3],1.65
same,Activity,[4],4.87%
Cc1cc(N2CCc3cc(F)sc3C2)cc(C)c1NC(=O)CC(C)(C)C,EC50,[1],2930 nM
Cc1ccc2c(c1)CCCCN2c1cc(C)c(NC(=O)CC(C)(C)C)c(C)c1,EC50,[1],40 nM
Cc1cc(N2CCCCc3cc(F)ccc32)cc(C)c1NC(=O)CC(C)(C)C,EC50,[1],250 nM
Cc1cc(N2CCc3sccc3C2)cc(C)c1NC(=O)CC(C)(C)C,Activity,Mus musculus [7],90%
same,Activity,Rattus norvegicus [8],0%
same,Kp at 2 h,[9],0.09
same,Vd,[10],11.2 L/kg
same,AUC(0-t),[11],687 ng·h/mL
same,Cmax,[12],1060 ng/mL
same,Kp at 5 min,[13],0.18
same,Tmax,[14],1.8 min
same,concentration at 5 min,[15],140 ng/g
same,V1/2,[2],66.2 mV
same,Activity,Rattus norvegicus [16],0%
same,Kp at 0.5 h,[17],0.12
same,half-life,[18],329 min
same,concentration at 2 h,[19],7.85 ng/mL
same,Activity,Mus musculus [20],20%
same,EC50,[1],20 nM
same,clearance,[21],23.6 mL/min/kg
same,concentration at 5 min,[22],25 ng/g
same,Ratio EC50,[23],17
same,Activity,Rattus norvegicus [24],0%
same,concentration at 0.5 h,[25],243 ng/mL
same,Activity,Rattus norvegicus [26],0%
same,EC50,Mus musculus [27],1.83 mg/kg
same,concentration at 5 min,[28],201 ng/mL
same,concentration at 2 h,[29],4.96 ng/g
same,Ratio,[3],1.63
same,concentration at 2 h,[30],52.9 ng/mL
same,Kp at 5 min,[31],0.12
same,MRT last,[32],2.17 h
same,Activity,Mus musculus [33],20%
same,concentration at 0.5 h,[34],19 ng/g
same,concentration at 0.5 h,[35],30 ng/g
same,concentration at 0.5 h,[36],137 ng/mL
same,Kp at 0.5 h,[37],0.14
same,Kp at 2 h,[38],0.16
same,Activity,[4],84.2%
same,concentration at 2 h,[39],1.27 ng/g
same,concentration at 5 min,[40],771 ng/mL
same,Activity,Mus musculus [41],70%
Cc1cc(N2CCCCc3cc(Cl)ccc32)cc(C)c1NC(=O)CC(C)(C)C,EC50,[1],140 nM
Cc1cc(N2CCc3sc(C#N)cc3C2)cc(C)c1NC(=O)CC(C)(C)C,EC50,[1],290 nM
